26 compounds from patent US6680311B1, “Cryptophycin compounds” (Eli Lilly and Company, priority 1996, dated 2004) can be followed below.

≈ marks a conversion by molar mass, not a printed value. Where a name gives a salt, the structure may show the parent alone. Read-outs that look alike come from different tables or passages of the source. A value given as a limit tells only on which side of the number the result lay.

As a reminder, the IC50 is the point on the concentration scale where inhibition reaches its midpoint. For orientation: solubility means the concentration that dissolves in the medium under given conditions.

Series [1] concerns GC3 human colon carcinoma cells. The experiment in a line: GC3 human colon carcinoma screen (MTT). It counts as cell-based. The protocol: Selected wells of a 96 well plate were seeded with GC3 human colon carcinoma cells ([…] cells in 100 μl assay medium/well) twenty four hours prior to test compound addition. Cell free assay medium was added to other select wells of the 96 well plate.
The test compound was stored in an amber bottle prior to testing. Fresh dimethylsulfoxide stock solution (200 μg/ml) was prepared immediately prior to preparation of test sample dilutions in phosphate-buffered saline (PBS). A dilution of 1:20 dimethylsulfoxide solution in PBS was prepared such that the final concentration was 10 ug/ml. Serial 1:3 dilutions using PBS (0.5 ml previous sample of 1 ml PBS) were prepared.
A 10 ul sample of each dilution of test compound was added in triplicate to wells of GC3 plates. The plates were incubated for 72 hours at about 37° C. A 10 μl sample of stock 3-[4,5-[…]]-2,5-diphenyltetrazolium bromide salt (“MTT” 5 mg/ml in PBS) was added to each well. The plates were incubated for about an hour at 37°. The plates were centrifuged, media was decanted from the wells and 100 μl acid-isopropanol (0.04 N HCl in isopropanol) was added to each well. The plate was read within one hour using a test wavelength of 570 nm (SpectraMax reader).

The nature of series [2]: Solubility in excipient / parenteral vehicles. It is filed as physicochemical. The following applies: Comparative solubility.
For a further series, the system named is SKVLB1 cells. The experiment in a line: Toxicity toward SKVLB1 cells (growth inhibition). It counts as cell-based. To be noted: Homo sapiens, inhibition of proliferation, P-glycoprotein over expressing, vinblastine-resistant sub-line.
Series [3] concerns A-10 cells. The experiment in a line: Effects on taxol-stabilized microtubules. It is filed as cell-based, rat. The protocol: (§1) A-10 cells are grown to near-confluency on glass coverslips in BME/10% FBS. Compounds in PBS are added to the indicated final concentrations and cells are incubated for an additional 24 hours. For the staining of microtubules and intermediate filaments, the cells are fixed with cold methanol and incubated with PBS containing 10% calf serum to block nonspecific binding sites. Cells are then incubated at 37° C. for 60 min. With either monoclonal anti-β-tubulin or with monoclonal anti-vimentin at dilutions recommended by the manufacturer. Bound primary antibodies are subsequently visualized by a 45 minute incubation with fluorescein-conjugated rabbit antimouse IgG. The coverslips are mounted on microscope slides and the fluorescence patterns are examined and photographed using a Zeiss Photomicroscope Ill equipped with epifluorescence optics for fluorescein. […] PBS containing 100 nM TRITC-phalloidin is then added and the mixture is allowed to incubate for 45 min. At 37° C. The cells are washed rapidly with PBS before the coverslips are mounted and immediately photographed as described above.
A-10 cells are treated for 3 hours with 0 or 10 μM taxol before the addition of PBS, 100 nM vinbiastine or 10 nM cryptophycin compound. After 24 hours, microtubule organization is examined by immunofluorescence as described above. […] Similarly, microtubules pretreated with taxol are observed with cryptophycin treatment.

The test system of series [4] is A-10 cells. The experiment in a line: Reversibility of microtubule depolymerization. It counts as cell-based, rat. The protocol:
as §1
The cells are then washed and incubated in drug-free medium for periods of 1 hour or 24 hours. […] Cells are visualized for microtubule state after treatment with a cryptophycin compound of this invention at either 1 hour or 24 hours after removal of the cryptophycin compounds.

The test system of series [5] is Aortic smooth muscle (A-10) cells. The experiment in a line: Effects on the cytoskeleton (immunofluorescence). It counts as cell-based, rat. To be noted: 2 μM, 24 hours. As for the experimental part: as §1
After 24 hours, microtubules and vimentin intermediate filaments are visualized by indirect immunofluorescence and microfilaments are stained using TRITC-phalloidin. The morphological effects of each drug is examined. […]

[6] abbreviates: in vitro cytotoxicity, Gc3 tumor cell model, read-out: Gc3 IC50.
Where [7] appears, read: Homo sapiens, Colon carcinoma cell, 72 h, read-out: IC50 (GC3 assay).
The mark [8] stands for this setting: Homo sapiens, Colon carcinoma cell, 72 h, read-out: GC3 IC50.

As for `COc1ccc(CC2NC(=O)C=CCC(C(C)C(OC(=O)CCC(=O)O)C(Cl)c3ccccc3)OC(=O)C(CC(C)C)OC(=O)C(C)(C)CNC2=O)cc1Cl` (centres unmarked) [5′, Cryptophycin 55 Succinate], the 50% inhibitory concentration (IC50) in series [1] (setting [6]) was 31 nM. As for `COc1ccc(CC2NC(=O)C=CCC(C(C)C(OC(=O)CN)C(Cl)c3ccccc3)OC(=O)C(CC(C)C)OC(=O)C(C)(C)CNC2=O)cc1Cl` (centres unmarked) [19′, Cryptophycin 55 Glycinate Hydrochloride Salt], in series [1] (setting [6]), the IC50 is 0.1 nM. `COc1ccc(CC2NC(=O)C=CCC(C(C)C(OC(=O)[C@@H](N)Cc3ccccc3)C(Cl)c3ccccc3)OC(=O)C(CC(C)C)OC(=O)C(C)(C)CNC2=O)cc1Cl` (some centres unmarked) [13′, Cryptophycin 55 (L)-Phenylalaninate Hydrochloride Salt]: in series [1] (setting [6]), the IC50 was 7 nM. As to `COc1ccc(C[C@H]2NC(=O)/C=C/C[C@@H]([C@H](C)[C@@H](Br)C(=O)c3ccccc3)OC(=O)[C@H](CC(C)C)OC(=O)[C@H](C)CNC2=O)cc1Cl` [CRYPTOPHYCIN-139, Cryptophycin-139], in series [1] (setting [7]), the IC50 worked out at 3.4 nM. Take “Cryptophycin 55 (D)-alaninate Hydrochloride Salt [30′]”: the IC50 in series [1] (setting [6]) is 30 nM. As for “Cryptophycin 55 (2′-phosphatyl)phenylacetate di-sodium Salt [7′]”, in series [1] (setting [6]), the half-inhibitory concentration (IC50) is 3.7 nM. The same measure, in the same setting: then `COc1ccc(CC2NC(=O)C=CCC(C(C)C(OC(=O)C3CCCN3)C(Cl)c3ccccc3)OC(=O)C(CC(C)C)OC(=O)C(C)(C)CNC2=O)cc1Cl` (centres unmarked) [17′, Cryptophycin 55 (L)-Prolinate Hydrochloride Salt], with 3.6 nM.

Consider `COc1ccc(C[C@H]2NC(=O)/C=C/C[C@@H]([C@H](C)[C@@H](OC(=O)Cc3ccccc3OP(=O)(O)O)[C@@H](Cl)c3ccccc3)OC(=O)[C@H](CC(C)C)OC(=O)C(C)(C)CNC2=O)cc1Cl` [Compound 6, Cryptophycin 55 (2′-Phosphatyl)phenylacetate di-Sodium Salt], for which the IC50 in series [1] (setting [8]) came out at 3.7 nM. Consider `COc1ccc(CC2NC(=O)C=CCC(C(C)C(OC(=O)[C@H](N)Cc3ccc(OC)c(Cl)c3)C(Cl)c3ccccc3)OC(=O)C(CC(C)C)OC(=O)C(C)(C)CNC2=O)cc1Cl` (some centres unmarked) [11′, Cryptophycin 55 3-(3-Chloro-4-methoxyphenyl)-(D)-alaninate Hydrochloride Salt], for which the IC50 in series [1] (setting [6]) came out at 6.8 nM. As to `COc1ccc(C[C@H]2NC(=O)/C=C/C[C@@H]([C@H](C)[C@@H](OC(=O)CCC(=O)O)[C@@H](Cl)c3ccccc3)OC(=O)[C@H](CC(C)C)OC(=O)C(C)(C)CNC2=O)cc1Cl` [Compound 4, Cryptophycin 55 Succinate], the IC50 in series [1] (setting [8]) was found to be 31 nM. Take `COc1ccc(C[C@H]2NC(=O)/C=C/C[C@@H]([C@H](C)[C@H](Br)[C@H](O)c3ccccc3)OC(=O)[C@H](CC(C)C)OC(=O)[C@H](C)CNC2=O)cc1Cl` [CRYPTOPHYCIN-145, Cryptophycin-145]: in series [1] (setting [7]), the IC50 was found to be 0.015 nM. As for `COc1ccc(C[C@H]2NC(=O)/C=C/C[C@@H]([C@H](C)[C@@H](Cl)[C@@H](O)c3ccccc3)OC(=O)[C@H](CC(C)C)OC(=O)[C@H](C)CNC2=O)cc1Cl` [CRYPTOPHYCIN-140, Cryptophycin-140], the half-maximal inhibitory concentration (IC50) in series [1] (setting [7]) came to 863 nM. In the case of `COc1ccc(CC2NC(=O)C=CCC(C(C)C(OC(=O)[C@@H](N)Cc3c[nH]cn3)C(Cl)c3ccccc3)OC(=O)C(CC(C)C)OC(=O)C(C)(C)CNC2=O)cc1Cl` (some centres unmarked) [15′, Cryptophycin 55 (L)-Histidinate Dihydrochloride Salt], the half-inhibitory concentration (IC50) in series [1] (setting [6]) was found to be 60 nM. In the case of `COc1ccc(C[C@H]2NC(=O)/C=C/C[C@@H]([C@H](C)[C@@H](Br)[C@H](O)c3ccccc3)OC(=O)[C@H](CC(C)C)OC(=O)[C@H](C)CNC2=O)cc1Cl` [CRYPTOPHYCIN-138, Cryptophycin-138], the IC50 in series [1] (setting [7]) came to 30.8 nM. As for “Cryptophycin 55 γ-Aminobutyrate Hydrochloride Salt [25′]”, in series [1] (setting [6]), the half-maximal inhibitory concentration (IC50) is 230 nM. As to `COc1ccc(C[C@H]2NC(=O)/C=C/C[C@@H]([C@H](C)[C@@H](O)[C@@H](Cl)c3ccccc3)OC(=O)[C@H](CC(C)C)OC(=O)C(C)(C)CNC2=O)cc1Cl` [Compound 1, cryptophycin 55], the half-inhibitory concentration (IC50) in series [1] (Homo sapiens, Colon carcinoma cell, in vitro cytotoxicity, 72 hours, MTT, read-out: GC3 IC50) is 0.065 nM. The solubility in series [2] (aqueous with cosolvent or surfactant or cyclodextrin, vehicle 1) was below 1 µg/mL; in series [2] (aqueous with cosolvent or surfactant or cyclodextrin, vehicle 2), 2.6 µg/mL (≈ 3.68 µM); in series [2] (aqueous with cosolvent or surfactant or cyclodextrin, vehicle 3), 311 µg/mL (≈ 441 µM); in series [2] (aqueous with cosolvent or surfactant or cyclodextrin, vehicle 4), 361 µg/mL (≈ 512 µM); in series [2] (pH 4, aqueous buffer, vehicle 5), below 1 µg/mL. For Cryptophycin 55 Acetate [3′], the concentration for half-maximal inhibition (IC50) in series [1] (setting [6]) turned out to be 83 nM.

As for `COc1ccc(C[C@H]2NC(=O)/C=C/C[C@@H]([C@H](C)[C@@H](O)[C@@H](Cl)c3ccccc3)OC(=O)[C@H](CC(C)C)OC(=O)C(C)(C)CNC2=O)cc1Cl` [1′, Cryptophycin 55], in series [1] (setting [6]), the IC50 was found to be 0.065 nM. Take `CC[C@]1(O)C[C@@H]2CN(CCc3c([nH]c4ccccc34)[C@@](C(=O)OC)(c3cc4c(cc3OC)N(C)[C@H]3[C@@](O)(C(=O)OC)[C@H](OC(C)=O)[C@]5(CC)C=CCN6CC[C@]43[C@@H]65)C2)C1` [Vinblastine, vinblastine]: inhibition in the series with SKVLB1 cells was half-maximal at 4200 nM (IC50). The “microtubule depolymerization after taxol pretreatment” value in the series on A-10 cells [3] (100 nM vinblastine after 3 hours pretreatment with 10 μM taxol) is reported as “prevented microtubule depolymerization”. Also, the microtubule depolymerization result in the series with A-10 cells [3] (100 nM, 24 hours, non-pretreated cells) is “complete depolymerization of microtubules”; with A-10 cells [4] (100 nM, 24 hr) it was “complete microtubule depolymerization”. The “microtubule repolymerization 1 hour after removal of drug” value in the series with A-10 cells [4] (100 nM for 24 hr, washed, drug-free medium 1 hour) is reported as “significant levels of microtubules”. Moreover, in the series on A-10 cells [4] (100 nM for 24 hr, washed, drug-free medium 24 hours), the “microtubule repolymerization 24 hours after removal of drug” value is on record as “complete morphological recovery”. The compound `CC(=O)O[C@H]1C(=O)[C@@]2(C)[C@H]([C@H](OC(=O)c3ccccc3)[C@]3(O)C[C@H](OC(=O)[C@H](O)[C@@H](NC(=O)c4ccccc4)c4ccccc4)C(C)=C1C3(C)C)[C@]1(OC(C)=O)CO[C@@H]1C[C@@H]2O` [Taxol, taxol] came in with a concentration for half-maximal inhibition (IC50) with SKVLB1 cells of 8000 nM. In addition, in the series on A-10 cells [3] (10 μM taxol, compared with control cells), the “microtubule organization in taxol-treated cells” value is listed as “extensively bundled”. As for “Cryptophycin 55 β-Alaninate Hydrochloride Salt [21′]”, the half-inhibitory concentration (IC50) in series [1] (setting [6]) was determined as 21 nM. For the compound `COc1ccc(C[C@H]2NC(=O)/C=C/C[C@@H]([C@H](C)[C@H](Cl)[C@H](O)c3ccccc3)OC(=O)[C@H](CC(C)C)OC(=O)[C@H](C)CNC2=O)cc1Cl` [CRYPTOPHYCIN-142], the IC50 in series [1] (setting [7]) was 1.1 nM.

For the compound `COc1ccc(C[C@H]2NC(=O)/C=C/C[C@@H]([C@H](C)[C@@H](OC(C)=O)[C@@H](Cl)c3ccccc3)OC(=O)[C@H](CC(C)C)OC(=O)C(C)(C)CNC2=O)cc1Cl` [Compound 3, Cryptophycin 55 Acetate], the 50% inhibitory concentration (IC50) in series [1] (setting [8]) was found to be 83 nM. For `COc1ccc(C[C@H]2NC(=O)/C=C/C[C@@H]([C@H](C)[C@@H](Cl)[C@H](O)c3ccccc3)OC(=O)[C@H](CC(C)C)OC(=O)[C@H](C)CNC2=O)cc1Cl` [CRYPTOPHYCIN-141, Cryptophycin-141], in series [1] (setting [7]), the IC50 was determined as 795 nM. On to `COc1ccc(C[C@H]2NC(=O)/C=C/C[C@@H]([C@H](C)[C@H](Cl)[C@@H](O)c3ccccc3)OC(=O)[C@H](CC(C)C)OC(=O)[C@H](C)CNC2=O)cc1Cl` [CRYPTOPHYCIN-143], for which the half-maximal inhibitory concentration (IC50) in series [1] (setting [7]) is 850 nM. For `C=C1[C@@H](C)[C@H]2[C@H](Cc3ccccc3)NC(=O)[C@]23OC(=O)/C=C/[C@H](O)CCC[C@@H](C)C/C=C/[C@H]3[C@@H]1O` [Cytochalasin B, cytochalasin B], the effect on microfilaments entry in series [5] (TRITC-phalloidin staining) is reported as “complete depolymerization of microfilaments”. Also, the “effect on distribution of microtubules or intermediate filaments” value in series [5] (indirect immunofluorescence) was “did not affect”.
